# Reference: patent US9643967B2, “Pyrrolo[3,2-c]pyridine derivatives as TLR inhibitors” (TAKEDA PHARMACEUTICAL COMPANY LIMITED, priority 2013, dated 2017)
# Like-named read-outs stand apart in the source and are kept apart here.
# Target: T1, mTLR7 (Mus musculus, UniProt P58681)
# T1 construct: Splenocytes isolated from male C57/BL6 mice; from tissue; host or cells: splenocytes from the spleen of male C57BL/6 mice
# T1 sequence (P58681 27-1050): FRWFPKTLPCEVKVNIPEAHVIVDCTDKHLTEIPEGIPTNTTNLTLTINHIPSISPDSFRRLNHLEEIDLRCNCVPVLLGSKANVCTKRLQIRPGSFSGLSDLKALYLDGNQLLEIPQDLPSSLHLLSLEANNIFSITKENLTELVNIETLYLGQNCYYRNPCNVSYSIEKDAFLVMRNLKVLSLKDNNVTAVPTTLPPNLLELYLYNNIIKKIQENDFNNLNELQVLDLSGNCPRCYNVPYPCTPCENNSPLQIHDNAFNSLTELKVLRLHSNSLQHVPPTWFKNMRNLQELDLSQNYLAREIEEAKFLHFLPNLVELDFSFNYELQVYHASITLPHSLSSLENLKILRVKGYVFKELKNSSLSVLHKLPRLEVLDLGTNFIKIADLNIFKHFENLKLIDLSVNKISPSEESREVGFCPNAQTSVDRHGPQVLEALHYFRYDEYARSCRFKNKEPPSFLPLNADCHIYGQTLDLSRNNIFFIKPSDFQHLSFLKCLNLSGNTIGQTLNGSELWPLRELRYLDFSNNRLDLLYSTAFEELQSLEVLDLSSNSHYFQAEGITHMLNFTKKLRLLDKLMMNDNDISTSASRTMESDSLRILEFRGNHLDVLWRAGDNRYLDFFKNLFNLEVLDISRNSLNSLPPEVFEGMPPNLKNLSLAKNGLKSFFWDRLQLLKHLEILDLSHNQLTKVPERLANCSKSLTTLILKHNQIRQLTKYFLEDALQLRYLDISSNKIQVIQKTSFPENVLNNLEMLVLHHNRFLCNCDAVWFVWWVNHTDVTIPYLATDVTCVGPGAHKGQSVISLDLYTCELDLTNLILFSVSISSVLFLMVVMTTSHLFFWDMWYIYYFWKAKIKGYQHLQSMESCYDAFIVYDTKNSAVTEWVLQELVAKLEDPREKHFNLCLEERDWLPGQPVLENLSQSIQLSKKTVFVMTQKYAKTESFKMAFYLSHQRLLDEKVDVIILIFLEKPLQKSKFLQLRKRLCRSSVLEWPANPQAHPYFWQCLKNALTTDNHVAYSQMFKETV
# Assay: mTLR7 antagonism (IL-6 and TNF-α release assay) in mouse splenocytes, R0006/DOTAP stimulated
# Assay type: cell-based
# Conditions: 1 μM, mouse splenocytes
# From the text: mTLR9 and mTLR7 Antagonism (Cytokine Release Assay) in Mouse Splenocytes
# TLR7 ligand R0006 (IDT, 5′-rU*rU*rG*rU*rU*rG*rU*rU*rG*rU*rU*rG*rU*rU*rG*rU*rU*rG*rU*rU-3′ (SEQ ID NO:1)), Liposomal transfection reagent—DOTAP (Roche, Cat. No. 11202375001), TLR9 ligand CpG ODN2006 (Sequence: T*C*G*T*C*G*T*T*T*T*G*T*C*G*T*T*T*T*G*T*C*G*T*T; *=phosphorothioate (SEQ ID NO:2)) DMSO (Sigma, D2650), RPMI Powder (Sigma, R6504), Fetal Bovine Serum (Gibco, 10270), Dulbecco's Phosphate Buffered Saline (Sigma, D1408), 96 well plate (Flat bottom, Costar 3599), ELISA kit for IL-6 (EBioscience, 88-7064-77 and TNFa (EBioscience, 88-7346-88), MACS Buffer (AutoMACS Rinsing Solution (Miltenyl Biotec, 130-091-222)+0.05% BSA), RBC lysis buffer (0.85% NH4Cl), 40 μm cell strainer (BD Falcon, 352340) Method: A. Isolation of Mouse Splenocytes
# Mouse spleen was isolated from C57BL6 mouse and stored in 1× chilled PBS buffer until further processed. Spleen was transferred to a sterile petriplate and chopped in to 5-6 pieces in presence of MACS buffer (100 μl) with the help of fresh surgical blade and crushed with flat plunger of a sterile syringe. A uniform suspension was prepared by passing cells through a 40 μm cell strainer. Cells were centrifuged at 450×g for 5 minutes at 4° C., supernatant was discarded and pellet dislodged gently, resuspended in 2 ml of pre-warmed (37° C.) RBC lysis buffer at room temperature with continuous gentle mixing with 1 ml pipette. Lysis buffer was neutralized with 12 ml of chilled MACS buffer and cells were passed through 40 μm cell strainer. Cell suspension was collected in 15 ml MACS buffer and centrifuged at 450×g for 5 minutes at 4° C. Pellet was resuspended in 15 ml MACS buffer and centrifuged at 400×g for 5 minutes. Cells were resuspended in 10 ml of RPMI complete medium and viability was estimated by Trypan blue method.
# mTLR7 Antagonism (IL-6 and TNF-α Release Assay):
# 1 mg/ml stock of R0006 was prepared in sterile, endotoxin-free water. R0006 stock was diluted 10 fold with DOTAP and incubated for 30 minutes to form liposome complex (100 μg/ml of R0006). This complex was further diluted 10 fold with incomplete RPMI media (10 μg/ml of R0006) to achieve the final agonist concentration of 1 μg/ml. DOTAP alone was diluted 10 fold in incomplete RPMI media. NCEs were added in a concentration range of 30 μM to 1 nM in respective wells of assay plate, assay medium containing 0.3% DMSO were added to control wells. 0.2 million splenocytes were added to all the wells and incubated at 37° C. in 5% CO2 incubator for 30 minutes. 1 μg/ml of respective agonist was added to all the wells except those were assigned as negative controls and mixed thoroughly. DOTAP was added to negative control wells and incubated overnight at 37° C./5% CO2. The plate was centrifuged at 450×g for 5 minutes at room temperature and the supernatant was collected. ELISA was performed as per manufacturer's protocol. S/B Ratio, % Activity and % Inhibition was calculated using MS Excel. IC50 and inhibition curve was generated using Graph Pad Prism.
# [1] = IL-6 release, read-out: mTLR7 inhibitory activity (% at 1 μM), IL-6
# [2] = TNF-α release, read-out: mTLR7 inhibitory activity (% at 1 μM), TNF-α
Structure (SMILES),inhibition at 1 µM [1] [%],inhibition at 1 µM [2] [%]
"CC(C)N1CCN(c2ccc(-c3nccc4[nH]c(CN5CCOCC5)cc34)cc2)CC1 [Example A1, 4-[[4-[4-(4-isopropylpiperazin-1-yl)phenyl]-1H-pyrrolo[3,2-c]pyridin-2-yl]methyl]morpholine]",97,100
"CN1CCN(c2ccc(-c3nccc4[nH]c(CN5CCOCC5)cc34)cc2)CC1 [Example A2, 4-[[4-[4-(4-methylpiperazin-1-yl)phenyl]-1H-pyrrolo[3,2-c]pyridin-2-yl]methyl] morpholine]",90,100
"CCN1CCN(c2ccc(-c3nccc4[nH]c(CN5CCOCC5)cc34)cc2)CC1 [Example A3, 4-[[4-[4-(4-ethylpiperazin-1-yl)phenyl]-1H-pyrrolo[3,2-c]pyridin-2-yl]methyl] morpholine]",100,100
"Cc1cc2[nH]c(CN3CCOCC3)cc2c(-c2ccc(N3CCN(C(C)C)CC3)cc2)n1 [Example A4, 4-[[4-[4-[4-isopropylpiperazin-1-yl)phenyl]-6-methyl-1H-pyrrolo[3,2-c]pyridin-2-yl]methyl] morpholine]",100,100
"CCN1CCN(c2ccc(-c3nc(C)cc4[nH]c(CN5CCOCC5)cc34)cc2)CC1 [Example A5, 4-[[4-[4-(4-ethylpiperazin-1-yl)phenyl]-6-methyl-1H-pyrrolo[3,2-c]pyridin-2-yl]methyl] morpholine]",100,100
"CC(C)N1CCN(c2ccc(-c3nccc4c3cc(CN3CCOCC3)n4C)cc2)CC1 [Example A8, 4-[[4-[4-(4-isopropylpiperazin-1-yl)phenyl]-1-methyl-pyrrolo[3,2-c]pyridin-2-yl]methyl] morpholine]",100,100
"CN1CCN(c2ccc(-c3nccc4c3cc(CN3CCOCC3)n4C)cc2)CC1 [Example A9, 4-[[1-methyl-4-[4-(4-methylpiperazin-1-yl)phenyl]pyrrolo[3,2-c]pyridin-2-yl]methyl] morpholine]",,100
"CC(C)N1CCN(c2ccc(-c3nccc4[nH]c(CN5CCC(O)CC5)cc34)cc2)CC1 [Example A12, 1-[[4-[4-(4-isopropylpiperazin-1-yl)phenyl]-1H-pyrrolo[3,2-c]pyridin-2-yl]methyl] piperidin-4-ol]",80,45
"CC(C)N1CCN(c2ccc(-c3nccc4[nH]c(CN5CCC6(CC5)CC(O)C6)cc34)cc2)CC1 [Example A13, 7-[[4-[4-(4-isopropylpiperazin-1-yl)phenyl]-1H-pyrrolo[3,2-c]pyridin-2-yl]methyl]-7-azaspiro[3.5] nonan-2-ol]",98,91
"CC(C)N1CCN(c2ccc(-c3nccc4[nH]c(CN5CC(F)C5)cc34)cc2)CC1 [Example A16, 2-[(3-fluoroazetidin-1-yl)methyl]-4-[4-(4-isopropylpiperazin-1-yl)phenyl]-1H-pyrrolo[3,2-c]pyridine]",100,99
"CC(C)N1CCN(c2ccc(-c3nccc4[nH]c(CN5CCCCC5)cc34)cc2)CC1 [Example A17, 4-[4-(4-isopropylpiperazin-1-yl)phenyl]-2-(1-piperidylmethyl)-1H-pyrrolo[3,2-c]pyridine]",100,100
"CC(C)N1CCN(c2ccc(-c3nccc4[nH]c(CN5CCC(F)CC5)cc34)cc2)CC1 [Example A24, 2-[(4-fluoro-1-piperidyl)methyl]-4-[4-(4-isopropylpiperazin-yl)phenyl]-1H-pyrrolo[3,2-c] pyridine]",,100
"CN1CCN(c2ccc(-c3nccc4[nH]c(CN5CCC(F)CC5)cc34)cc2)CC1 [Example A25, 2-[(4-fluoro-1-piperidyl)methyl]-4-[4-(4-methylpiperazin-1-yl)phenyl] - 1H-pyrrolo[3,2-c]pyridine]",100,100
"Cc1cc2[nH]c(Cn3cccn3)cc2c(-c2ccc(N3CCN(C(C)C)CC3)cc2)n1 [Example A28, 4-[4-(4-isopropylpiperazin-1-yl)phenyl]-6-methyl-2-(pyrazol-1-ylmethyl)-1H-pyrrolo[3,2-c]pyridine]",88,100
"Cc1cc2[nH]c(CN3CCC4(CC3)CC(O)C4)cc2c(-c2ccc(N3CCN(C(C)C)CC3)cc2)n1 [Example A29, 7-[[4-[4-(4-isopropylpiperazin-1-yl)phenyl]-6-methyl-1H-pyrrolo[3,2-c]pyridin-2-yl]methyl]-7-azaspiro[3.5] nonan-2-ol]",97,82
"Cc1cc2[nH]c(CN3CCC4(CC3)CC(C)C4)cc2c(-c2ccc(N3CCN(C(C)C)CC3)cc2)n1 [Example A30, 4-[4-(4-isopropylpiperazin-1-yl)phenyl]-6-methyl-2-[(2-methyl-7-azaspiro[3.5]nonan-7-yl)methyl]-1H-pyrrolo[3,2-c]pyridine]",100,100
"CC(C)N1CCN(c2ccc(-c3nc(C4CC4)cc4[nH]c(CN5CCOCC5)cc34)cc2)CC1 [Example A33, 4-[[6-cyclopropyl-4-[4-(4-isopropylpiperazin-1-yl)phenyl]-1H-pyrrolo[3,2-c]pyridin-2-yl]methyl] morpholine]",,83
"CN1CCN(c2ccc(-c3nc(C4CC4)cc4[nH]c(CN5CCOCC5)cc34)cc2)CC1 [Example A34, 4-[[6-cyclopropyl-4-[4-(4-methylpiperazin-1-yl)phenyl]-1H-pyrrolo[3,2-c]pyridin-2-yl]methyl] morpholine]",,100
"Cc1cc2c(cc(CN3CCOCC3)n2C)c(-c2ccc(N3CCN(C(C)C)CC3)cc2)n1 [Example A35, 4-[[4-[4-(4-isopropylpiperazin-1-yl]phenyl]-1,6-dimethyl-pyrrolo[3,2-c]pyridin-2-yl]methyl] morpholine]",100,100
